Relative viability data for 10 cell lines are collected here from the supplement of paper PMC10307832.

Holding throughout (assay): relative viability (nuclei count vs DMSO), 5 days (fraction); higher = more cells survive
Compound in the assay “Ibrutinib + Navitoclax”: C=CC(=O)N1CCC[C@@H](n2nc(-c3ccc(Oc4ccccc4)cc3)c3c(N)ncnc32)C1 [Ibrutinib] + CC1(C)CCC(c2ccc(Cl)cc2)=C(CN2CCN(c3ccc(C(=O)NS(=O)(=O)c4ccc(N[C@H](CCN5CCOCC5)CSc5ccccc5)c(S(=O)(=O)C(F)(F)F)c4)cc3)CC2)C1 [Navitoclax] (partner 0.5 µM)
The method in brief: (§1)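 Five library-drug doses in √10 steps were combined with a fixed anchor-drug dose, or a single drug was given alone, by pin tool to lung cancer cell lines in 1536-well plates the day after seeding. Nuclei were stained and counted after 5 days. Relative viability is the nuclei count in treated wells over that in vehicle wells, taken as the median of duplicate plates.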

Compound in the assay “Ibrutinib + Vorinostat”: C=CC(=O)N1CCC[C@@H](n2nc(-c3ccc(Oc4ccccc4)cc3)c3c(N)ncnc32)C1 [Ibrutinib] + O=C(CCCCCCC(=O)Nc1ccccc1)NO [Vorinostat] (partner 1 µM)
Summed up: as §1

Compound in the assay “BMX-IN-1 + Bortezomib”: C=CC(=O)Nc1cc(-n2c(=O)ccc3cnc4ccc(-c5ccc(NS(C)(=O)=O)cc5)cc4c32)ccc1C [BMX-IN-1] + CC(C)C[C@H](NC(=O)[C@H](Cc1ccccc1)NC(=O)c1cnccn1)B(O)O [Bortezomib] (partner 0.002 µM)
Summed up: as §1

Compound in the assay “BMX-IN-1 + Alpelisib”: C=CC(=O)Nc1cc(-n2c(=O)ccc3cnc4ccc(-c5ccc(NS(C)(=O)=O)cc5)cc4c32)ccc1C [BMX-IN-1] + Cc1nc(NC(=O)N2CCC[C@H]2C(N)=O)sc1-c1ccnc(C(C)(C)C(F)(F)F)c1 [Alpelisib] (partner 2 µM)
The method in brief:
as §1

Consider NCI-H2085, for which the relative viability was 1.1 with Ibrutinib + Navitoclax (first compound 0.005 µM); 1.13 with Ibrutinib + Navitoclax (first compound 0.01581 µM); 1 with Ibrutinib + Navitoclax (first compound 0.05 µM); 1.13 with Ibrutinib + Navitoclax (first compound 0.1581 µM); 0.85 with Ibrutinib + Vorinostat (first compound 0.005 µM); 0.708 with Ibrutinib + Vorinostat (first compound 0.01581 µM). Moreover, the relative viability with Ibrutinib + Vorinostat (first compound 0.05 µM) turned out to be 0.74; in the assay with Ibrutinib + Vorinostat (first compound 0.1581 µM), 0.62; with Ibrutinib + Vorinostat (first compound 0.5 µM), 0.695; with BMX-IN-1 + Bortezomib (first compound 0.02 µM), 1.14; with BMX-IN-1 + Bortezomib (first compound 0.2 µM) it was 0.998; with BMX-IN-1 + Bortezomib (first compound 0.6325 µM), 1.2. In addition, the relative viability came out at 1.16 with BMX-IN-1 + Bortezomib (first compound 2 µM); 0.944 with BMX-IN-1 + Alpelisib (first compound 0.02 µM); 0.981 in the assay with BMX-IN-1 + Alpelisib (first compound 0.2 µM); 0.834 in the assay with BMX-IN-1 + Alpelisib (first compound 0.6325 µM); 0.917 with BMX-IN-1 + Alpelisib (first compound 2 µM).
With NCI-H2228, the relative viability with Ibrutinib + Navitoclax (first compound 0.005 µM) was 0.859; with Ibrutinib + Navitoclax (first compound 0.01581 µM), 0.838; with Ibrutinib + Navitoclax (first compound 0.05 µM), 0.932; with Ibrutinib + Navitoclax (first compound 0.1581 µM), 0.911; with Ibrutinib + Navitoclax (first compound 0.5 µM) it was 0.836; with Ibrutinib + Vorinostat (first compound 0.005 µM), 0.696. The relative viability came out at 0.486 in the assay with Ibrutinib + Vorinostat (first compound 0.01581 µM); 0.569 with Ibrutinib + Vorinostat (first compound 0.05 µM); 0.502 in the assay with Ibrutinib + Vorinostat (first compound 0.1581 µM); 0.648 with Ibrutinib + Vorinostat (first compound 0.5 µM); 1.66 with BMX-IN-1 + Bortezomib (first compound 0.02 µM); 1.03 in the assay with BMX-IN-1 + Bortezomib (first compound 0.2 µM). For the same cell line, the relative viability in the assay with BMX-IN-1 + Bortezomib (first compound 0.6325 µM) was found to be 1.47; with BMX-IN-1 + Bortezomib (first compound 2 µM) it was 1.12; with BMX-IN-1 + Alpelisib (first compound 0.02 µM), 0.906; with BMX-IN-1 + Alpelisib (first compound 0.2 µM) it was 1.04; with BMX-IN-1 + Alpelisib (first compound 0.6325 µM), 1.16; with BMX-IN-1 + Alpelisib (first compound 2 µM), 0.822.
LU99A: the relative viability worked out at 0.725 with Ibrutinib + Navitoclax (first compound 0.005 µM); 0.684 in the assay with Ibrutinib + Navitoclax (first compound 0.01581 µM); 0.772 in the assay with Ibrutinib + Navitoclax (first compound 0.05 µM); 0.814 with Ibrutinib + Navitoclax (first compound 0.1581 µM); 0.664 with Ibrutinib + Navitoclax (first compound 0.5 µM); 0.369 with Ibrutinib + Vorinostat (first compound 0.005 µM). Also, the relative viability in the assay with Ibrutinib + Vorinostat (first compound 0.01581 µM) came out at 0.512; in the assay with Ibrutinib + Vorinostat (first compound 0.05 µM), 0.486; with Ibrutinib + Vorinostat (first compound 0.1581 µM) it was 0.564; with Ibrutinib + Vorinostat (first compound 0.5 µM), 0.439; in the assay with BMX-IN-1 + Bortezomib (first compound 0.02 µM) it was 1.2; with BMX-IN-1 + Bortezomib (first compound 0.2 µM) it was 1.18. The relative viability with BMX-IN-1 + Bortezomib (first compound 0.6325 µM) came to 1.2; with BMX-IN-1 + Bortezomib (first compound 2 µM), 1.12; with BMX-IN-1 + Alpelisib (first compound 0.02 µM), 0.482; in the assay with BMX-IN-1 + Alpelisib (first compound 0.2 µM), 0.659; in the assay with BMX-IN-1 + Alpelisib (first compound 0.6325 µM) it was 0.526; in the assay with BMX-IN-1 + Alpelisib (first compound 2 µM), 0.532.
Take NCI-H522: the relative viability with Ibrutinib + Vorinostat (first compound 0.005 µM) was 0.848; in the assay with Ibrutinib + Vorinostat (first compound 0.01581 µM) it was 0.764; with Ibrutinib + Vorinostat (first compound 0.1581 µM), 0.808; with Ibrutinib + Vorinostat (first compound 0.5 µM), 0.815.
As to LCLC-97TM1, the relative viability in the assay with Ibrutinib + Navitoclax (first compound 0.005 µM) turned out to be 0.486; with Ibrutinib + Navitoclax (first compound 0.01581 µM), 0.561; with Ibrutinib + Navitoclax (first compound 0.05 µM), 0.474; with Ibrutinib + Navitoclax (first compound 0.1581 µM), 0.398; with Ibrutinib + Navitoclax (first compound 0.5 µM), 0.377; in the assay with Ibrutinib + Vorinostat (first compound 0.005 µM), 0.702. In addition, the relative viability with Ibrutinib + Vorinostat (first compound 0.01581 µM) amounted to 0.798; with Ibrutinib + Vorinostat (first compound 0.05 µM), 0.718; in the assay with Ibrutinib + Vorinostat (first compound 0.1581 µM), 0.897; with Ibrutinib + Vorinostat (first compound 0.5 µM), 0.691; with BMX-IN-1 + Bortezomib (first compound 0.02 µM), 0.332; in the assay with BMX-IN-1 + Bortezomib (first compound 0.2 µM), 0.562. The relative viability with BMX-IN-1 + Bortezomib (first compound 0.6325 µM) came to 0.629; in the assay with BMX-IN-1 + Bortezomib (first compound 2 µM) it was 0.505; with BMX-IN-1 + Alpelisib (first compound 0.02 µM), 0.283; in the assay with BMX-IN-1 + Alpelisib (first compound 0.2 µM) it was 0.222; with BMX-IN-1 + Alpelisib (first compound 0.6325 µM) it was 0.244; with BMX-IN-1 + Alpelisib (first compound 2 µM), 0.294.
With NCI-H1793, the relative viability was determined as 0.282 in the assay with Ibrutinib + Navitoclax (first compound 0.01581 µM); 0.603 in the assay with Ibrutinib + Navitoclax (first compound 0.05 µM); 0.498 with Ibrutinib + Navitoclax (first compound 0.1581 µM); 0.343 with Ibrutinib + Navitoclax (first compound 0.5 µM); 0.405 in the assay with Ibrutinib + Vorinostat (first compound 0.005 µM); 0.643 with Ibrutinib + Vorinostat (first compound 0.01581 µM). The relative viability stood at 0.47 in the assay with Ibrutinib + Vorinostat (first compound 0.05 µM); 0.518 with Ibrutinib + Vorinostat (first compound 0.1581 µM); 0.367 with Ibrutinib + Vorinostat (first compound 0.5 µM); 1.14 with BMX-IN-1 + Alpelisib (first compound 0.02 µM); 0.873 with BMX-IN-1 + Alpelisib (first compound 0.2 µM); 0.665 with BMX-IN-1 + Alpelisib (first compound 0.6325 µM). Besides, the relative viability with BMX-IN-1 + Alpelisib (first compound 2 µM) was found to be 0.563.
Turning to Calu-6, the relative viability with Ibrutinib + Navitoclax (first compound 0.005 µM) was found to be 0.954; with Ibrutinib + Navitoclax (first compound 0.01581 µM) it was 0.746; in the assay with Ibrutinib + Navitoclax (first compound 0.05 µM), 0.771; in the assay with Ibrutinib + Navitoclax (first compound 0.1581 µM), 0.955; with Ibrutinib + Navitoclax (first compound 0.5 µM), 0.756; with BMX-IN-1 + Bortezomib (first compound 0.02 µM), 1.03. In addition, the relative viability in the assay with BMX-IN-1 + Bortezomib (first compound 0.2 µM) was 1.09; with BMX-IN-1 + Bortezomib (first compound 0.6325 µM), 1.31; with BMX-IN-1 + Bortezomib (first compound 2 µM) it was 1.07; in the assay with BMX-IN-1 + Alpelisib (first compound 0.02 µM), 0.974; with BMX-IN-1 + Alpelisib (first compound 0.2 µM), 1.13; with BMX-IN-1 + Alpelisib (first compound 0.6325 µM), 1.15. Besides, the relative viability with BMX-IN-1 + Alpelisib (first compound 2 µM) amounted to 0.919.
Consider NCI-H1563, for which the relative viability in the assay with BMX-IN-1 + Bortezomib (first compound 0.02 µM) came out at 0.896; in the assay with BMX-IN-1 + Bortezomib (first compound 0.2 µM) it was 0.925; in the assay with BMX-IN-1 + Bortezomib (first compound 0.6325 µM), 0.891; with BMX-IN-1 + Bortezomib (first compound 2 µM) it was 0.79; with BMX-IN-1 + Alpelisib (first compound 0.02 µM), 0.997; in the assay with BMX-IN-1 + Alpelisib (first compound 0.2 µM), 0.902. The relative viability with BMX-IN-1 + Alpelisib (first compound 0.6325 µM) stood at 0.904; with BMX-IN-1 + Alpelisib (first compound 2 µM), 0.893.
Turning to NCI-H650, the relative viability with Ibrutinib + Vorinostat (first compound 0.005 µM) came out at 0.36; with Ibrutinib + Vorinostat (first compound 0.01581 µM), 0.389; in the assay with Ibrutinib + Vorinostat (first compound 0.05 µM), 0.413; with Ibrutinib + Vorinostat (first compound 0.1581 µM) it was 0.578; in the assay with Ibrutinib + Vorinostat (first compound 0.5 µM) it was 0.45; with BMX-IN-1 + Bortezomib (first compound 0.02 µM), 1.06. The relative viability with BMX-IN-1 + Bortezomib (first compound 0.2 µM) was determined as 0.762; with BMX-IN-1 + Bortezomib (first compound 0.6325 µM), 0.783; with BMX-IN-1 + Bortezomib (first compound 2 µM) it was 0.749; in the assay with BMX-IN-1 + Alpelisib (first compound 0.02 µM), 1.2; in the assay with BMX-IN-1 + Alpelisib (first compound 0.2 µM) it was 1.19; with BMX-IN-1 + Alpelisib (first compound 0.6325 µM), 1.27. Moreover, in the assay with BMX-IN-1 + Alpelisib (first compound 2 µM), the relative viability is 1.1.
Consider LCLC-103H, for which the relative viability with Ibrutinib + Vorinostat (first compound 0.005 µM) is 0.776; with Ibrutinib + Vorinostat (first compound 0.01581 µM), 0.878; with Ibrutinib + Vorinostat (first compound 0.05 µM), 0.777; with Ibrutinib + Vorinostat (first compound 0.1581 µM), 0.782; with Ibrutinib + Vorinostat (first compound 0.5 µM), 0.754; in the assay with BMX-IN-1 + Bortezomib (first compound 0.02 µM), 1.11. The relative viability amounted to 0.972 with BMX-IN-1 + Bortezomib (first compound 0.2 µM); 1.25 with BMX-IN-1 + Bortezomib (first compound 0.6325 µM); 0.932 with BMX-IN-1 + Bortezomib (first compound 2 µM); 1.01 in the assay with BMX-IN-1 + Alpelisib (first compound 0.02 µM); 0.972 with BMX-IN-1 + Alpelisib (first compound 0.2 µM); 1.09 with BMX-IN-1 + Alpelisib (first compound 0.6325 µM). In addition, in the assay with BMX-IN-1 + Alpelisib (first compound 2 µM), the relative viability was 0.875.
